Laboratory results reported in ChEMBL document CHEMBL1201862, “PubChem BioAssay data set” (2004).
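Test compounds were applied to cells in 96-well plates for 48 hours at 5 doses. GI50: concentration for 50% inhibition of growth.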 The source made the active and inactive calls. Rule as the data show it: active = GI50 up to about 1.1 µM and inactive = higher.

How the values were obtained:
Test in all cases: DTP human tumour cell line panel, 48 h
U-251 = system: U-251
COLO 205 = system: COLO 205
LOX IMVI = system: LOX IMVI
SK-OV-3 = system: SK-OV-3
NCI-H226 = system: NCI-H226
SNB-75 = system: SNB-75
CAKI-1 = system: CAKI-1
SW-620 = system: SW-620
UACC-62 = system: UACC-62
HCC 2998 = system: HCC 2998
MOLT-4 = system: MOLT-4
RPMI-8226 = system: RPMI-8226
HT-29 = system: HT-29
CCRF-CEM = system: CCRF-CEM
A549 = system: A549
UACC-257 = system: UACC-257
SK-MEL-28 = system: SK-MEL-28
NCI-H23 = system: NCI-H23
Malme-3M = system: Malme-3M

Measured: GI50

CC/C=C(\C(=C/CC)[N+](=O)[O-])[N+](=O)[O-]
inactive: U-251 17.7 µM | COLO 205 17.8 µM | LOX IMVI 17.5 µM | SK-OV-3 > 100 µM | NCI-H226 95.5 µM | SNB-75 > 100 µM | CAKI-1 23.2 µM | SW-620 17.1 µM | UACC-62 18 µM | HCC 2998 19.4 µM | MOLT-4 42.7 µM | RPMI-8226 24.1 µM | HT-29 16.4 µM | CCRF-CEM 8.22 µM | A549 74.6 µM | UACC-257 17.1 µM | SK-MEL-28 19.9 µM | NCI-H23 18.9 µM

CC1OC(=O)C(O)=C1O (stereo unspecified)
inactive: U-251 > 100 µM | COLO 205 > 100 µM | LOX IMVI > 100 µM | SK-OV-3 > 100 µM | NCI-H226 > 100 µM | SNB-75 > 100 µM | CAKI-1 > 100 µM | SW-620 > 100 µM | UACC-62 > 100 µM | HCC 2998 > 100 µM | MOLT-4 > 100 µM | RPMI-8226 > 100 µM | HT-29 > 100 µM | Malme-3M > 100 µM | CCRF-CEM > 100 µM | A549 > 100 µM | UACC-257 > 100 µM | NCI-H23 > 100 µM

Cc1nc2ccc(C(F)(F)F)cc2nc1Nc1ccc(Cl)c(Cl)c1
inactive: U-251 6.46 µM | COLO 205 3.94 µM | LOX IMVI 3.03 µM | SK-OV-3 18.9 µM | NCI-H226 16.1 µM | SNB-75 > 10 µM | SW-620 12.7 µM | UACC-62 12.9 µM | HCC 2998 3.72 µM | MOLT-4 7 µM | RPMI-8226 8.17 µM | HT-29 4.68 µM | Malme-3M 19.9 µM | CCRF-CEM 6.44 µM | A549 7.14 µM | UACC-257 12.8 µM | SK-MEL-28 12.2 µM | NCI-H23 12.6 µM

CC1NC(=O)C2=C1C(N)=NC(=O)C2 (stereo unspecified)
inactive: U-251 > 100 µM | COLO 205 > 100 µM | LOX IMVI > 100 µM | SK-OV-3 > 100 µM | NCI-H226 > 100 µM | SNB-75 > 100 µM | CAKI-1 > 100 µM | SW-620 > 100 µM | UACC-62 > 100 µM | HCC 2998 > 100 µM | MOLT-4 > 100 µM | RPMI-8226 > 100 µM | Malme-3M > 100 µM | A549 > 100 µM | UACC-257 > 100 µM | SK-MEL-28 > 100 µM | NCI-H23 > 100 µM

Cc1ccc2oc(=O)c(-c3ccccc3)nc2c1
inactive: COLO 205 24.5 µM | LOX IMVI 20.2 µM | NCI-H226 37.8 µM | SNB-75 37.5 µM | CAKI-1 28.9 µM | SW-620 22 µM | HCC 2998 19.9 µM | MOLT-4 10.7 µM | RPMI-8226 31.5 µM | HT-29 45.6 µM | Malme-3M 23.4 µM | CCRF-CEM 18.5 µM | A549 26 µM | UACC-257 37.5 µM | SK-MEL-28 50.4 µM | NCI-H23 24.7 µM

CCCc1[nH]c(SCCCCCCCCSc2nc(-c3ccc(F)cc3)c(CCC)[nH]2)nc1-c1ccc(F)cc1
inactive: U-251 18.7 µM | COLO 205 77.4 µM | LOX IMVI 10.3 µM | SNB-75 2.11 µM | SW-620 > 100 µM | UACC-62 5.58 µM | HCC 2998 > 100 µM | MOLT-4 4.65 µM | RPMI-8226 1.98 µM | HT-29 62.7 µM | CCRF-CEM 6.59 µM | A549 11.3 µM | UACC-257 12.2 µM | SK-MEL-28 26.7 µM | NCI-H23 4.49 µM

Cc1cc(O)nc(NNC(C#N)c2ccc(O)cc2)n1 (stereo unspecified)
inactive: U-251 > 100 µM | COLO 205 > 100 µM | LOX IMVI > 100 µM | SK-OV-3 > 100 µM | NCI-H226 > 100 µM | SNB-75 > 100 µM | CAKI-1 > 100 µM | SW-620 > 100 µM | UACC-62 > 100 µM | MOLT-4 > 100 µM | RPMI-8226 > 100 µM | HT-29 > 100 µM | Malme-3M > 100 µM | CCRF-CEM > 100 µM | A549 > 100 µM | UACC-257 > 100 µM | SK-MEL-28 > 100 µM | NCI-H23 > 100 µM

CC(Cc1ccc2c(c1)OCO2)N(C)C(=O)C1=CCN(C)CC1 (stereo unspecified)
inactive: U-251 > 100 µM | COLO 205 > 100 µM | LOX IMVI > 100 µM | SK-OV-3 > 100 µM | NCI-H226 > 100 µM | SNB-75 46.2 µM | CAKI-1 > 100 µM | SW-620 > 100 µM | UACC-62 > 100 µM | HCC 2998 > 100 µM | MOLT-4 > 100 µM | RPMI-8226 > 100 µM | HT-29 > 100 µM | Malme-3M > 100 µM | CCRF-CEM > 100 µM | A549 > 100 µM | UACC-257 > 100 µM | SK-MEL-28 > 100 µM | NCI-H23 > 100 µM

CC(=O)n1nnc2ccc([N+](=O)[O-])cc21
inactive: U-251 > 100 µM | COLO 205 > 100 µM | LOX IMVI > 100 µM | SK-OV-3 > 100 µM | NCI-H226 > 100 µM | SNB-75 > 100 µM | CAKI-1 > 100 µM | SW-620 > 100 µM | UACC-62 > 100 µM | MOLT-4 > 100 µM | RPMI-8226 > 100 µM | HT-29 > 100 µM | Malme-3M > 100 µM | CCRF-CEM > 100 µM | A549 > 100 µM | UACC-257 > 100 µM | SK-MEL-28 > 100 µM | NCI-H23 > 100 µM

C#C[C@H](CCCC)OC(=O)N[C@H](C)c1ccccc1
inactive: U-251 59.8 µM | COLO 205 21.7 µM | LOX IMVI 33.2 µM | SK-OV-3 > 100 µM | SNB-75 41.2 µM | CAKI-1 52.6 µM | SW-620 68.2 µM | UACC-62 80.9 µM | MOLT-4 31.3 µM | RPMI-8226 24.5 µM | HT-29 40.2 µM | CCRF-CEM 34.6 µM | A549 36.1 µM | UACC-257 24.8 µM | SK-MEL-28 54.5 µM

NC(=O)c1oc([N+](=O)[O-])c(-c2ccccc2)c1-c1ccccc1
inactive: U-251 24.3 µM | COLO 205 16.8 µM | LOX IMVI 14.1 µM | SK-OV-3 36.1 µM | NCI-H226 11 µM | SNB-75 65.9 µM | CAKI-1 18.4 µM | SW-620 27 µM | UACC-62 8.65 µM | MOLT-4 17.1 µM | HT-29 27.2 µM | Malme-3M 3.49 µM | CCRF-CEM 19.1 µM | A549 21.1 µM | UACC-257 18 µM | SK-MEL-28 44 µM | NCI-H23 15.4 µM

CC(=O)N(C)SCC(NC(=O)C(Cc1ccccc1)NC(=O)OCc1ccccc1)C(=O)NC(Cc1ccccc1)C(=O)NC(Cc1cn(C=O)c2ccccc12)C(=O)NC(CCCCNC(=O)OCc1ccccc1)C(=O)NC(C(=O)NC(CSN(C)C(C)=O)C(=O)NO)C(C)OCc1ccccc1 (stereo unspecified)
inactive: U-251 > 100 µM | COLO 205 > 100 µM | LOX IMVI > 100 µM | SK-OV-3 > 100 µM | NCI-H226 > 100 µM | SNB-75 > 100 µM | SW-620 > 100 µM | UACC-62 > 100 µM | HCC 2998 > 100 µM | MOLT-4 > 100 µM | RPMI-8226 > 100 µM | HT-29 > 100 µM | Malme-3M > 100 µM | CCRF-CEM > 100 µM | A549 > 100 µM | UACC-257 > 100 µM | SK-MEL-28 > 100 µM | NCI-H23 > 100 µM

COc1cc(/C=C\c2cccnc2)cc(OC)c1OC
inactive: U-251 33 µM | COLO 205 29.3 µM | LOX IMVI 26.2 µM | NCI-H226 > 100 µM | SNB-75 58.3 µM | CAKI-1 44.5 µM | SW-620 38.3 µM | UACC-62 46.3 µM | MOLT-4 9.84 µM | RPMI-8226 19.6 µM | HT-29 40.7 µM | Malme-3M 64.9 µM | CCRF-CEM 25.7 µM | A549 42.1 µM | UACC-257 68.4 µM | SK-MEL-28 69.3 µM | NCI-H23 66.8 µM

O=C1NC(=O)C(CC2CCCCCCCCCCC2=O)C(=O)N1 (stereo unspecified)
inactive: U-251 > 100 µM | COLO 205 > 100 µM | LOX IMVI > 100 µM | SK-OV-3 > 100 µM | NCI-H226 > 100 µM | SNB-75 > 100 µM | CAKI-1 > 100 µM | SW-620 > 100 µM | UACC-62 > 100 µM | HCC 2998 > 100 µM | MOLT-4 39.6 µM | HT-29 74 µM | CCRF-CEM 1.2 µM | A549 > 100 µM | UACC-257 > 100 µM | SK-MEL-28 > 100 µM | NCI-H23 > 100 µM

COc1ccc2c(c1)O[C@H]1c3ccc(O)cc3OC[C@@H]21
inactive: U-251 27.9 µM | COLO 205 24.1 µM | LOX IMVI 13 µM | SK-OV-3 39.5 µM | NCI-H226 25.1 µM | SNB-75 11.2 µM | CAKI-1 24.1 µM | SW-620 33 µM | UACC-62 14.3 µM | HCC 2998 22.9 µM | MOLT-4 19.8 µM | RPMI-8226 25.7 µM | HT-29 34.4 µM | Malme-3M 34.8 µM | CCRF-CEM 19.2 µM | A549 28.6 µM | UACC-257 21.8 µM | NCI-H23 26 µM

O=S(=O)(N/C(=N\O)Nc1ccc(Cl)cc1)c1cc2ccccc2s1
inactive: U-251 15.2 µM | COLO 205 15.2 µM | LOX IMVI 17.5 µM | SK-OV-3 16.7 µM | NCI-H226 15.4 µM | SNB-75 12.7 µM | CAKI-1 15.8 µM | SW-620 23.7 µM | UACC-62 15.3 µM | MOLT-4 16.2 µM | HT-29 19.6 µM | Malme-3M 15.6 µM | CCRF-CEM 21.9 µM | A549 18.7 µM | UACC-257 22 µM | SK-MEL-28 19.4 µM | NCI-H23 16 µM
